Laboratory results reported in US10206400B2, “Insecticidal compounds based on isoxazoline derivatives” (Syngenta Crop Protection LLC, priority 2009, dated 2019).

Legend:
Type in all cases: in vivo
[1] = system: Heliothis virescens; test: Heliothis virescens (tobacco budworm) egg/artificial diet test; details: 96 h, 200 ppm (concentration in well 18 ppm), eggs 0-24 h old on artificial diet, 4 days, egg mortality, larval mortality, growth regulation
Method: Eggs (0-24 h old) were placed in 24-well microtiter plate on artificial diet and treated with test solutions at an application rate of 200 ppm (concentration in well 18 ppm) by pipetting. After an incubation period of 4 days, samples were checked for egg mortality, larval mortality, and growth regulation.

[2] = system: Plutella xylostella; test: Plutella xylostella (diamond back moth) artificial diet test; details: 144 h, 200 ppm (concentration in well 18 ppm), L2 larvae, 6 days, larval mortality, growth regulation
Method: 24-well microtiter plate (MTP) with artificial diet was treated with test solutions at an application rate of 200 ppm (concentration in well 18 ppm) by pipetting. After drying, the MTP's were infested with L2 larvae (7-12 per well). After an incubation period of 6 days, samples were checked for larval mortality and growth regulation.

[3] = system: Spodoptera littoralis; test: Spodoptera littoralis (Egyptian cotton leafworm) leaf disc spray test; details: foliar, 72 h, 200 ppm spray on cotton leaf discs, L1 larvae, mortality, feeding behavior, growth regulation 3 days after treatment
From the text: Cotton leaf discs were placed on agar in a 24-well microtiter plate and sprayed with test solutions at an application rate of 200 ppm. After drying, the leaf discs were infested with 5 L1 larvae. The samples were checked for mortality, feeding behavior, and growth regulation 3 days after treatment (DAT).

[4] = system: Tetranychus urticae; test: Tetranychus urticae (two-spotted spider mite) leaf disc spray test; details: foliar, 192 h, 200 ppm spray on bean leaf discs, mixed ages, 8 days, egg, larval and adult mortality
From the text: Bean leaf discs on agar in 24-well microtiter plates were sprayed with test solutions at an application rate of 200 ppm. After drying, the leaf discs are infested with mite populations of mixed ages. 8 days later, discs are checked for egg mortality, larval mortality, and adult mortality.

[5] = system: Myzus persicae; test: Myzus persicae (green peach aphid), systemic test; details: 144 h, roots of infested pea seedlings in test solution, 6 days, mortality, special effects on the plant
From the text: Myzus persicae (Green peach aphid), systemic test: Roots of pea seedlings, infested with an aphid population of mixed ages, are placed directly in the test solutions at an application rate of 12.5 ppm. 6 days after introduction, samples are checked for mortality and special effects on the plant. The following compounds gave at least 80% control of Myzus persicae: A3, B2, B3, B5, B6, B7, B8, B11, B12, C1, C2, C3,C4, C5, C6, C7, D1, E1, E2, G1, G3, G5, G6, H1, H5, H6, H9, H10, H11, H12, H13, H14, H18, H19, H20, H24, H25, and H26.

[6] = system: Thrips tabaci; test: Thrips tabaci (onion thrips) leaf disc spray test; details: foliar, 168 h, 200 ppm spray on sunflower leaf discs, mixed ages, 7 days, mortality
Method: [The procedure below names another target; the source lists this target under the same test.] Sunflower leaf discs were placed on agar in a 24-well microtiter plate and sprayed with test solutions at an application rate of 200 ppm. After drying, the leaf discs were infested with an […] population of mixed ages. After an incubation period of 7 days, samples were checked for mortality.

[7] = system: Diabrotica balteata; test: Diabrotica balteata (corn root worm) artificial diet test; details: 120 h, 200 ppm (concentration in well 18 ppm), L2 larvae, 5 days, larval mortality, growth regulation
Method: A 24-well microtiter plate (MTP) with artificial diet was treated with test solutions at an application rate of 200 ppm (concentration in well 18 ppm) by pipetting. After drying, the MTP's were infested with L2 larvae (6-10 per well). After an incubation period of 5 days, samples were checked for larval mortality and growth regulation.

CCN1OC[C@H](NC(=O)c2ccc(C3=NO[C@@](c4cc(Cl)cc(Cl)c4)(C(F)(F)F)C3)cc2C)C1=O [Compound G3, 4-[5-(3,5-dichloro-phenyl)-5-(S)-trifluoromethyl-4,5-dihydro-isoxazol-3-yl]-2-methyl-N—((S)-2-ethyl-3-oxo-isoxazolidin-4-yl)-benzamide]
≥ 80%: pest or weed control at 200 ppm [1] | pest or weed control at 200 ppm [2] | pest or weed control at 200 ppm [3] | pest or weed control at 200 ppm [4] | pest or weed control at 12.5 ppm [5] | pest or weed control at 200 ppm [6] | pest or weed control at 200 ppm [7]

Cc1cc(C2=NO[C@@](c3cc(Cl)cc(Cl)c3)(C(F)(F)F)C2)ccc1C(=O)N[C@@H]1CON(CC(F)F)C1=O [Compound G5, 4-[5-(3,5-Dichloro-phenyl)-5-(S)-trifluoromethyl-4,5-dihydro-isoxazol-3-yl]-2-methyl-N—((R)-2-(2,2-difluoroethyl)-3-oxo-isoxazolidin-4-yl)-benzamide]
≥ 80%: pest or weed control at 200 ppm [1] | pest or weed control at 200 ppm [2] | pest or weed control at 200 ppm [3] | pest or weed control at 200 ppm [4] | pest or weed control at 12.5 ppm [5] | pest or weed control at 200 ppm [6] | pest or weed control at 200 ppm [7]
